Measured values from patent US20100215822A1, “MOUTHFEEL ENHANCING INGREDIENTS” (Firmenich SA, priority 2007, published 2010).
“Also recorded” adds a separate entry of the source. Like-named read-outs stand apart in the source and are kept apart here.

What was measured:
skilled panelists = test: Evaluation of the mouthfeel enhancer in Diet Cola, tasted blind by panel; format: in vivo; details: for Results (mouthfeel, sweetness, off-notes and other descriptors): 5 mg in 300 mL commercial Diet Cola, tasted blind by 4-5 skilled panelists by comparison with Diet Cola without mouthfeel enhancer (reference); for Overall result: deliver the mouthfeel required in the reduced-sugar beverage without further generating undesirable off-notes: 5 mg in 300 mL Diet Cola
[1] = Solubility observed in Diet Cola samples
Method: 5 mg of each of the following compounds, all obtained from Avanti Polar Lipids, Inc., Alabama, USA was added to 300 mL of a commercially available Diet Cola in a bottle. The bottles were then closed and shaken by hand for 1 min at room temperature. Following this, the bottles were sonicated for 5 min in an ultrasonic bath and then stored at room temperature overnight. All samples were tasted blind by 4-5 skilled panelists and assessed, by comparison with a Diet Cola not containing any mouthfeel enhancer, for mouthfeel, sweetness, off-notes and other descriptors.

| Solubility in Diet Cola [1] | Solubility in Diet Cola ([1]; 5 mg in 300 mL Diet Cola, shaken 1 min, sonicated 5 min, stored at room temperature overnight) | Compound | Results (mouthfeel, sweetness, off-notes and other descriptors) (skilled panelists) | Overall result: deliver the mouthfeel required in the reduced-sugar beverage without further generating undesirable off-notes (skilled panelists) |
| --- | --- | --- | --- | --- |
| – | – | CCCCCCCCCC(=O)OC[C@@H](O)COP(=O)([O-])OCC[N+](C)(C)C [1-Capryl-2-hydroxy-glycero-3-phosphocholine] | slightly more mouthfeel, close to reference | – |
| – | – | CCCCCCCC/C=C\CCCCCCCC(=O)OCC(O)COP(=O)(O)OCC(O)CO (stereo not shown) [1-Oleoyl-2-hydroxy-glycero-3-phosphoglycerol] | less sour, more sweet, similar to reference | – |
| – | – | CCCCCCCCCCCCCCCC(=O)OCC(O)COP(=O)(O)OCC(O)CO (stereo not shown) [1-Palmitoyl-2-hydroxy-glycero-3-phosphoglycerol] | slightly more mouthfeel, creamy, similar to reference | – |
| – | – | CCCCCC(=O)OCC(COP(=O)(O)O)OC(=O)CCCCC (stereo not shown) [Dicaproylphosphatidic acid] | Thin, typical diet cola, slight metallic off-note, and sweet, acidic, more lemon, lingering/long lasting, and oily | – |
| – | – | CCCCCC(=O)OC[C@H](COP(=O)(O)OCC[N+](C)(C)C)OC(=O)CCCCC [Dicaproylphosphatidyl choline] | More acidity than others, sweeter, smoother, fuller,; also recorded: more mouthfeel, similar mouthfeel | Excellent results |
| – | – | CCCCCC(=O)OC[C@H](COP(=O)(O)OCCN)OC(=O)CCCCC [Dicaproylphosphatidyl ethanolamine] | Quite metallic, slightly more fatty, sweet lingering,; also recorded: thin, less sweet, less flavor, lingering fatty taste; | – |
| – | – | CCCCCCCC(=O)OC[C@H](COP(=O)([O-])OCC[N+](C)(C)C)OC(=O)CCCCCCC [Dicapryloylphosphatidylcholine] | Some mouthfeel, similar to reference, slight off-note | – |
| – | – | CCCCCCCCCCCC(=O)OC[C@H](COP(=O)(O)O)OC(=O)CCCCCCCCCCC [Dilauroylphosphatidic acid] | More Mouthfeel, fatty, fuller, clean, acidic, more; also recorded: sour and harsh, oily | – |
| – | – | CCCCCCCCCCCC(=O)OC[C@H](COP(=O)([O-])OCC[N+](C)(C)C)OC(=O)CCCCCCCCCCC [Dilauroylphosphatidyl choline] | – | Excellent results |
| – | – | CCCCCCCCCCCC(=O)OC[C@H](COP(=O)(O)OCCN)OC(=O)CCCCCCCCCCC [Dilauroylphosphatidyl ethanolamine] | Very similar to reference, slightly fuller, sweeter,; also recorded: citrusy | – |
| – | – | CCCCCCCCCCCC(=O)OCC(COP(=O)(O)OCC(O)CO)OC(=O)CCCCCCCCCCC (stereo not shown) [Dilauroylphosphatidyl glycerol] | Sweeter, similar to reference, fatty, off-note, waxy,; also recorded: good sweetness, slightly flat aroma | – |
| – | – | CCCCCCCCCCCCCC(=O)OC[C@H](COP(=O)([O-])OCC[N+](C)(C)C)OC(=O)CCCCCCCCCCCCC [Dimyristoylphosphatidylcholine] | carbonated, sweeter | Excellent results |
| – | – | CCCCCCCC/C=C\CCCCCCCC(=O)OC[C@H](COP(=O)(O)O)OC(=O)CCCCCCC/C=C\CCCCCCCC [Dioleoylphosphatidic acid] | More mouthfeel, fatty, fuller, very drying,; also recorded: mouthcoating, less lingering, oily | – |
| not completely soluble | – | CCCCCCCC/C=C\CCCCCCCC(=O)OC[C@H](COP(=O)(O)OCCN)OC(=O)CCCCCCC/C=C\CCCCCCCC [Dioleoylphosphatidyl ethanolamine] | Slightly sweeter, slightly more bitter, fatty/waxy off- | – |
| – | – | CCCCCCCC/C=C\CCCCCCCC(=O)OC[C@H](COP(=O)(O)OCC(O)CO)OC(=O)CCCCCCC/C=C\CCCCCCCC (stereo partly shown) [Dioleoylphosphatidyl glycerol] | chemical, slight off-note on taste | – |
| – | – | CCCCCCCCCCCCCCCC(=O)OC[C@H](COP(=O)(O)O)OC(=O)CCCCCCCCCCCCCCC [Dipalmitoylphosphatidic acid] | smooth, good mouthfeel, slightly oily, no off-note; also recorded: More mouthfeel, fatty, fuller, heavy, sweeter, | Excellent results |
| – | – | CCCCCCCCCCCCCCCC(=O)OC[C@H](COP(=O)([O-])OCC[N+](C)(C)C)OC(=O)CCCCCCCCCCCCCCC [Dipalmitoylphosphatidyl choline] | Sweeter, nice sweetness but lingering, good; also recorded: difference, slightly fuller, slightly fatty | Excellent results |
| – | completely soluble | CCCCCCCCCCCCCCCC(=O)OCC(COP(=O)(O)OCCN)OC(=O)CCCCCCCCCCCCCCC (stereo not shown) [Dipalmitoylphosphatidyl ethanolamine] | less flavor, lingering fatty | – |
| – | – | CCCCCCCCCCCCCCCC(=O)OCC(COP(=O)(O)OCC(O)CO)OC(=O)CCCCCCCCCCCCCCC (stereo not shown) [Dipalmitoylphosphatidyl glycerol] | Seems less carbonated, less acidic, more citrusy; also recorded: aroma, better mouthfeel, less metallic, good; also recorded: no off-note | Excellent results |
| – | – | Dicaprylphosphatidylcholine | More mouthfeel, good mouthfeel, more body,; also recorded: creamy, sl. more sweet, good sweetness | Excellent results |
